Test results as given in US20050004126A1 (priority 2001, published 2005).
Several values for one entry are separate records, joined by “and”; a condition that tells them apart may be missing. Equal values may be shown once. Where a name gives a salt, the structure may show the parent alone. Read-outs that look alike come from different tables or passages of the source.

Experiments:
[1] = target: MMP-13CD (catalytic domain of collagenase 3) (Homo sapiens, UniProt P45452); assay: Thiopeptolide hydrolysis assay, MMP-13;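 note: inhibition of enzymatic thiopeptolide substrate cleavage (100 µM) in pH 6.0 MES buffer with CaCl2 and DTNB, comparing hydrolysis with versus without inhibitor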
[2] = target: T1, MMP-1FL (full-length interstitial collagenase) (Homo sapiens, UniProt P03956); assay: Thiopeptolide hydrolysis assay, MMP-1; assay type: biochemical; conditions: read-out: MMP01 IC50
T1 sequence (P03956 100-469): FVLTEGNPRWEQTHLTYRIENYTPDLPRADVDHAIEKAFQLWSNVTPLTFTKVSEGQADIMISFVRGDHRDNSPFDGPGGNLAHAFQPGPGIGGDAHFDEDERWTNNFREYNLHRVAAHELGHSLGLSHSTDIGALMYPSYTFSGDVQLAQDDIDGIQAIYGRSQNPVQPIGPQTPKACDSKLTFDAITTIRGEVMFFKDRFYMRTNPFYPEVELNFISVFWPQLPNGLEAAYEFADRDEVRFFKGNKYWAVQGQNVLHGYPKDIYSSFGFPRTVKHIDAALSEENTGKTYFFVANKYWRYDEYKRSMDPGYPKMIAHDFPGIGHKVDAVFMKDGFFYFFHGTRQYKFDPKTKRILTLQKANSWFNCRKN
Method: (§1) They measure the amount by which a test compound reduces the hydrolysis of a thiopeptolide substrate caused by a matrix metalloproteinase enzyme.
Thiopeptolide substrates show virtually no decomposition or hydrolysis in the absence of a matrix metalloproteinase enzyme. A typical thiopeptolide substrate commonly utilized for assays is Ac-Pro-Leu-Gly-thioester-Leu-Leu-Gly-OEt. A 100 μL assay mixture will contain 50 mM of 2-morpholinoethane sulfonic acid monohydrate (MES, pH 6.0) 10 mM CaCl2, 100 μM thiopeptolide substrate, and 1 mM 5,5′-dithio-bis-(2-nitro-benzoic acid) (DTNB). […] The change in absorbance at 405 nm is monitored on a Thermo Max microplate reader (moleucular Devices, Menlo Park, Calif.) at room temperature (22° C.). […] Assays are carried out with and without matrix metalloproteinase inhibitor compounds, and the amount of hydrolysis is compared for a determination of inhibitory activity of the test compounds.

[3] = target: MMP-3CD (catalytic domain of stromelysin) (Homo sapiens, UniProt P08254); assay: Thiopeptolide hydrolysis assay, MMP-3; assay type: biochemical;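 note: inhibition of thiopeptolide substrate (100 µM) cleavage by the MMP-3 catalytic domain, detected with DTNB at pH 6.0 with CaCl2, hydrolysis compared against runs lacking inhibitor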
Sequence of MMP-3CD (catalytic domain of stromelysin) (P08254 100-272 limits assumed): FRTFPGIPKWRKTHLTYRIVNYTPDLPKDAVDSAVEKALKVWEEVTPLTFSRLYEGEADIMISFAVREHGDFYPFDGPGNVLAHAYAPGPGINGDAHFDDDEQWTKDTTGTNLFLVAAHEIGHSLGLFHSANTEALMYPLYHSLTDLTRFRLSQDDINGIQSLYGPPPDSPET
Method: as §1
Thiopeptolide substrates show virtually no decomposition or hydrolysis in the absence of a matrix metalloproteinase enzyme. A typical thiopeptolide substrate commonly utilized for assays is Ac-Pro-Leu-Gly-thioester-Leu-Leu-Gly-OEt. A 100 μL assay mixture will contain 50 mM of 2-morpholinoethane sulfonic acid monohydrate (MES, pH 6.0) 10 mM CaCl2, 100 μM thiopeptolide substrate, and 1 mM 5,5′-dithio-bis-(2-nitro-benzoic acid) (DTNB). […] Assays are carried out with and without matrix metalloproteinase inhibitor compounds, and the amount of hydrolysis is compared for a determination of inhibitory activity of the test compounds.

SMILES | IC50 ([1]; MMP13 IC50 (nM), Table II) | IC50 ([2]; Table II) [µM] | IC50 ([3]; Table II, read-out: MMP03 IC50) [nM] | IC50 ([3]; MMP03 IC50 (nM), Table II) [nM] | IC50 ([1]; MMP13 IC50 (μM), Table 1b) [nM] | IC50 ([2]; Table 1b) [µM] | IC50 ([3]; Table 1b, read-out: MMP03 IC50) [nM]
COc1ccc(CNC(=O)c2cccc(C(=O)NCc3ccc4c(c3)OCO4)c2)cc1 | 1650 nM | > 100 |  | > 100000 |  |  | 
COc1ccc(CNC(=O)c2cn3c(=O)n(Cc4ccc(Cl)c(Cl)c4)c(=O)cc3s2)cc1 [6-(3,4-Dichloro-benzyl)-5,7-dioxo-6,7-dihydro-5H-thiazolo[3,2-c]pyrimidine-2-carboxylic acid 4-methoxy-benzylamide] |  |  |  |  | 84 | > 100 | > 100000
COc1cccc(COC(=O)c2cccc(C(=O)OCc3cccc(OC)c3)c2)c1 [Isophthalic acid bis-(3-methoxy-benzyl) ester] | 1150 nM | > 100 | > 100000 |  |  |  | 
O=C(OCc1ccc(F)cc1)c1cccc(C(=O)OCc2ccc(F)cc2)c1 [Isophthalic acid bis-(4-fluoro-benzyl) ester] | 2330 nM | > 100 | > 100000 |  |  |  | 
COc1ccc(COC(=O)c2cccc(C(=O)OCc3ccc(OC)cc3)c2)cc1 [Isophthalic acid bis-(4-methoxy-benzyl) ester] | 1080 nM | > 100 | 51000 |  |  |  | 
O=C(OCc1ccccc1)c1cccc(C(=O)OCc2ccccc2)c1 [Isophthalic acid dibenzyl ester] | 2300 nM | > 100 | > 30000 |  |  |  | 
COc1ccc(C(=O)NCc2ccc3c(c2)OCO3)cc1C(=O)NCc1ccc2c(c1)OCO2 [N,N′-Bis-1,3-benzodioxol-5-ylmethyl-4-methoxy-isophthalamide] | 185 nM | > 100 | 50000 |  |  |  | 
O=C(NCc1cccc(Cl)c1)c1cccc(C(=O)NCc2cccc(Cl)c2)c1 [N,N′-Bis-(3-chloro-benzyl)-isophthalamide] | 2300 nM | > 100 | 20000 |  |  |  | 
O=C(NCc1cccc(F)c1)c1cccc(C(=O)NCc2cccc(F)c2)c1 [N,N′-Bis-(3-fluoro-benzyl)-isophthalamide] | 5650 nM | > 100 | > 100000 |  |  |  | 
COc1cccc(CNC(=O)c2cccc(C(=O)NCc3cccc(OC)c3)c2)c1 [N,N′-Bis-(3-methoxy-benzyl)-isophthalamide] | 1350 nM | > 100 | > 100000 |  |  |  | 
COc1cc(CNC(=O)c2cccc(C(=O)NCc3ccc(F)c(OC)c3)c2)ccc1F [N,N′-Bis-(4-fluoro-3-methoxy-benzyl)-isophthalamide] | 930 nM | > 100 | > 100000 |  |  |  | 
O=C(NCc1ccc(F)cc1)c1cccc(C(=O)NCc2ccc(F)cc2)c1 [N,N′-Bis-(4-fluoro-benzyl)-isophthalamide] | 2350 nM | > 100 | > 100000 |  |  |  | 
COc1ccc(CNC(=O)c2cccc(C(=O)NCc3ccc(OC)cc3)c2)cc1 [N,N′-Bis-(4-methoxy-benzyl)-isophthalamide] | 1000 nM and 2740 nM | > 100 | > 100000 |  |  |  | 
COc1ccc(C(=O)NCc2ccccc2)cc1C(=O)NCc1ccccc1 [N,N′-Dibenzyl-4-methoxy-isophthalamide] | 1800 nM and 1100 nM | > 100 | > 100000 |  |  |  | 
COc1ccc(CNC(=O)c2cccc(C(=O)NCc3ccccc3)c2)cc1 [N-Benzyl-N′-(4-methoxy-benzyl)-isophthalamide] | 2420 nM | > 100 | > 100000 |  |  |  | 
Cc1c(=O)n(Cc2ccc(C(=O)OCCN(C)C)cc2)c(=O)n2cc(C(=O)NCc3ccncc3)sc12 [dihydrochloride] |  |  |  |  | 235 | > 100 | > 100000
Cc1c(=O)n(Cc2ccc(Br)cc2)c(=O)n2cc(C(=O)NCc3ccncc3)sc12 [hydrochloride] |  |  |  |  | 36.5 | > 30 | > 30000
Cc1c(=O)n(Cc2ccc(C(=O)N3CCOCC3)cc2)c(=O)n2cc(C(=O)NCc3ccncc3)sc12 [hydrochloride] |  |  |  |  | 37 | > 100 | > 100000
Cc1c(=O)n(Cc2ccc(C(=O)OCCN(C)C)cc2)c(=O)n2cc(C(=O)NCc3ccc(F)cc3)sc12 [hydrochloride] |  |  |  |  | 71 | > 30 | > 100000
Cc1c(=O)n(Cc2ccc(F)cc2)c(=O)n2cc(C(=O)NCc3ccncc3)sc12 [hydrochloride] |  |  |  |  | 60.5 | > 30 | > 30000
Cc1c(=O)n(Cc2ccc(S(N)(=O)=O)cc2)c(=O)n2cc(C(=O)NCc3ccncc3)sc12 [hydrochloride] |  |  |  |  | 46.3 | > 30 | > 100000
Cc1c(=O)n(Cc2cccc(C#N)c2)c(=O)n2cc(C(=O)NCc3ccncc3)sc12 [hydrochloride] |  |  |  |  | 173 | > 30 | > 30000
Cc1c(=O)n(Cc2nccs2)c(=O)n2cc(C(=O)NCc3ccc(F)cc3)sc12 [hydrochloride] |  |  |  |  | 530 | > 100 | > 30000

The next lines start with results.

IC50 ([1]; MMP13 IC50 (nM), Table II) | IC50 ([2]; Table II) [µM] | IC50 ([3]; Table II, read-out: MMP03 IC50) [nM] | SMILES | IC50 ([3]; MMP03 IC50 (nM), Table II) [nM] | IC50 ([1]; MMP13 IC50 (μM), Table 1b) [nM] | IC50 ([2]; Table 1b) [µM] | IC50 ([3]; Table 1b, read-out: MMP03 IC50) [nM]
280 nM | > 100 | > 100000 | COc1ccc(CNC(=O)c2ccc(OC)c(C(=O)NCc3ccc(OC)cc3)c2)cc1 |  |  |  | 
9250 nM | > 100 | > 100000 | COC(=O)COc1ccc(C(=O)OCc2ccccc2)cc1C(=O)OCc1ccccc1 |  |  |  | 
255 nM | > 100 | 64000 | COC(=O)c1ccc(CNC(=O)c2cccc(C(=O)NCc3cccc(OC)c3)c2)cc1 |  |  |  | 
1900 nM | > 100 | > 100000 | O=C(NCc1ccccc1)c1cccc(C(=O)NCc2ccc3c(c2)OCO3)c1 |  |  |  | 
3400 nM | > 100 | > 100000 | O=C(NCc1ccc2c(c1)OCO2)c1cccc(C(=O)NCc2ccco2)c1 |  |  |  | 
44 nM | > 100 | > 100000 | COc1cccc(CNC(=O)c2cccc(C(=O)OCc3ccc(C(=O)O)cc3)c2)c1 |  |  |  | 
385 nM | > 100 | 76000 | COc1cccc(CNC(=O)c2cccc(C(=O)NCc3ccc(C)cc3)c2)c1 |  |  |  | 
1140 nM | > 100 | > 100000 | COc1cccc(CNC(=O)c2cccc(C(=O)NCc3ccc([N+](=O)[O-])cc3)c2)c1 |  |  |  | 
7930 nM | > 100 | > 100000 | COc1cccc(CNC(=O)c2cccc(C(=O)NCc3cccnc3)c2)c1 |  |  |  | 
1400 nM | > 100 | > 100000 | COc1cccc(CNC(=O)c2cccc(C(=O)NCc3ccncc3)c2)c1 |  |  |  | 
555 nM | > 100 | 68000 | COc1cccc(CNC(=O)c2cccc(C(=O)NCc3ccc(Cl)c(Cl)c3)c2)c1 |  |  |  | 
503 nM | > 100 | > 100000 | COc1cccc(CNC(=O)c2cccc(C(=O)NCc3ccc(Cl)cc3)c2)c1 |  |  |  | 
415 nM | > 100 | 40000 | COc1ccc(CNC(=O)c2cccc(C(=O)NCc3cccc(OC)c3)c2)cc1 |  |  |  | 
1500 nM | > 100 | > 100000 | O=C(NCc1cccnc1)c1cccc(C(=O)NCc2ccc3c(c2)OCO3)c1 |  |  |  | 
493 nM | 51 | 20000 | CCOc1ccc(C(=O)NCc2ccc3c(c2)OCO3)cc1C(=O)NCc1ccc2c(c1)OCO2 |  |  |  | 
1450 nM | > 100 | 27000 | CCCOc1ccc(C(=O)NCc2ccc3c(c2)OCO3)cc1C(=O)NCc1ccc2c(c1)OCO2 |  |  |  | 
155 nM | 30 | 21000 | COc1ccc(C(=O)NCc2ccc3nsnc3c2)cc1C(=O)NCc1ccc2nsnc2c1 |  |  |  | 
915 nM | > 100 | > 100000 | O=C(O)CN(Cc1ccccc1)C(=O)c1cccc(C(=O)NCc2ccc3c(c2)OCO3)c1 |  |  |  | 
8200 nM | > 100 | > 100000 | CC(=O)c1ccc(C(=O)OCc2ccccc2)cc1C(=O)OCc1ccccc1 [4-Acetyl-isophthalic acid dibenzyl ester] |  |  |  | 
180 nM | > 100 | > 100000 | COc1cccc(CNC(=O)c2ccc(OC)c(C(=O)NCc3cccc(OC)c3)c2)c1 [4-Methoxy-N,N′-bis-(3-methoxy-benzyl)-isophthalamide] |  |  |  | 
7250 nM | > 100 | > 100000 | COc1ccc(C(=O)NCc2ccc(C)cc2)cc1C(=O)NCc1ccc(C)cc1 [4-Methoxy-N,N′-bis-(4-methyl-benzyl)-isophthalamide] |  |  |  | 
900 nM | > 100 | > 100000 | COc1ccc(C(=O)OCc2ccccc2)cc1C(=O)OCc1ccccc1 [4-Methoxy-isophthalic acid dibenzyl ester] |  |  |  | 
255 nM | > 100 | > 100000 | COc1ccc(C(=O)OCc2ccncc2)cc1C(=O)OCc1ccncc1 [4-Methoxy-isophthalic acid dipyridin-4-ylmethyl ester] |  |  |  | 
1100 nM | > 100 | 73000 | Nc1cc(C(=O)OCc2ccccc2)cc(C(=O)OCc2ccccc2)c1 [5-Amino-isophthalic acid dibenzyl ester] |  |  |  | 
7830 nM | > 100 | > 30000 | O=C(OCc1cccc(F)c1)c1cccc(C(=O)OCc2cccc(F)c2)c1 [Isophthalic acid bis-(3-fluoro-benzyl) ester] |  |  |  | 
5500 nM | 79 | 9400 | O=C(NCc1ccc(Cl)cc1)c1cccc(C(=O)NCc2ccc(Cl)cc2)c1 [N,N′-Bis-(4-chloro-benzyl)-isophthalamide] |  |  |  | 
